Test results: patent publication US20160122320A1, “USEFUL COMBINATIONS OF MONOBACTAM ANTIBIOTICS WITH BETA-LACTAMASE INHIBITORS” (Basilea Pharmaceutica AG, priority 2005, published 2016)
Counter-ions that a name gives are not always drawn.

Assays:
Test in all cases: MIC, NCCLS broth microdilution
Assay type in all cases: cell-based
[1] = test system: Pseudomonas aeruginosa MK1184; conditions: for MIC of antibiotic at fixed inhibitor concentration (4 mg/L): MIC of antibiotic compound 1 with the labelled bridged monobactam of formula II and clavulanate, 4 mg/L each; for MIC of antibiotic: antibiotic alone, no inhibitor
[2] = test system: Pseudomonas aeruginosa 1973E; conditions: for MIC of antibiotic at fixed inhibitor concentration (4 mg/L): MIC of antibiotic compound 1 with the labelled bridged monobactam of formula II and clavulanate, 4 mg/L each; for MIC of antibiotic: antibiotic alone, no inhibitor
In short: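 Broth microdilution per NCCLS M7-A5, final DMSO ≤1%, overnight incubation at 30° C. or 37° C. MIC is the lowest concentration completely inhibiting visible growth, read by eye. In combination tests, formula I compounds were serially diluted with formula II and III-XIII partners held at 4 μg/mL each.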

Enterobacter cloacae P99 = conditions: for MIC of antibiotic at fixed inhibitor concentration (4 mg/L): MIC of antibiotic compound 1 with the labelled bridged monobactam of formula II and clavulanate, 4 mg/L each; for MIC of antibiotic: antibiotic alone, no inhibitor
Serratia marcescens S6 = conditions: for MIC of antibiotic at fixed inhibitor concentration (4 mg/L): MIC of antibiotic compound 1 with the labelled bridged monobactam of formula II and clavulanate, 4 mg/L each; for MIC of antibiotic: antibiotic alone, no inhibitor
[3] = test system: Klebsiella pneumoniae CF104; conditions: for MIC of antibiotic at fixed inhibitor concentration (4 mg/L): MIC of antibiotic compound 1 with the labelled bridged monobactam of formula II and clavulanate, 4 mg/L each; for MIC of antibiotic: antibiotic alone, no inhibitor
Acinetobacter sp. J2 = conditions: for MIC of antibiotic at fixed inhibitor concentration (4 mg/L): Acinetobacter sp. J2, MIC of antibiotic compound 1 with the labelled bridged monobactam of formula II and clavulanate, 4 mg/L each; for MIC of antibiotic / MIC of antibiotic at fixed inhibitor concentration of 4 mg/L: Acinetobacter baumannii J2; for MIC of antibiotic: antibiotic alone, no inhibitor
[4] = test system: Stenotrophomonas malthophilia 1AC736; conditions: for MIC of antibiotic at fixed inhibitor concentration (4 mg/L): Stenotrophomonas malthophilia 1AC736, MIC of antibiotic compound 1 with the labelled bridged monobactam of formula II and clavulanate, 4 mg/L each; for MIC of antibiotic / MIC of antibiotic at fixed inhibitor concentration of 4 mg/L: Stenotrophomonas maltophilia 1AC736; for MIC of antibiotic: antibiotic alone, no inhibitor

MIC of antibiotic at fixed inhibitor concentration (4 mg/L) [1] [µg/mL]	MIC of antibiotic at fixed inhibitor concentration (4 mg/L) [2] [µg/mL]	MIC of antibiotic at fixed inhibitor concentration (4 mg/L) (Enterobacter cloacae P99) [µg/mL]	MIC of antibiotic at fixed inhibitor concentration (4 mg/L) (Serratia marcescens S6) [µg/mL]	MIC of antibiotic at fixed inhibitor concentration (4 mg/L) [3] [µg/mL]	MIC of antibiotic at fixed inhibitor concentration (4 mg/L) (Acinetobacter sp. J2) [µg/mL]	MIC of antibiotic at fixed inhibitor concentration (4 mg/L) [4] [µg/mL]	MIC of antibiotic [1] [µg/mL]	MIC of antibiotic [2] [µg/mL]	MIC of antibiotic (Enterobacter cloacae P99) [µg/mL]	MIC of antibiotic (Serratia marcescens S6) [µg/mL]	MIC of antibiotic [3] [µg/mL]	MIC of antibiotic (Acinetobacter sp. J2) [µg/mL]	MIC of antibiotic [4] [µg/mL]	SMILES	other results
>32	8	8	0.25	0.5	>32	0.125								CCOC(=O)c1cccc(NC(=O)N2CC[C@@H]3[C@H]2C(=O)N3S(=O)(=O)[O-])c1.[Na+] [Compound 320, Sodium(1S,5R)-2-{N-[3-(ethoxycarbonyl)phenyl]carbamoyl}-7-oxo-2,6-diazabicyclo[3.2.0]heptane-6-sulfonate]	
>32	4	16	0.25	1	8	0.125								O=C(Nc1ccccc1)N1CC[C@@H]2[C@H]1C(=O)N2S(=O)(=O)[O-].[Na+] [Compound 301]	

The remaining lines, values behind:

SMILES	MIC of antibiotic at fixed inhibitor concentration (4 mg/L) [1] [µg/mL]	MIC of antibiotic at fixed inhibitor concentration (4 mg/L) [2] [µg/mL]	MIC of antibiotic at fixed inhibitor concentration (4 mg/L) (Enterobacter cloacae P99) [µg/mL]	MIC of antibiotic at fixed inhibitor concentration (4 mg/L) (Serratia marcescens S6) [µg/mL]	MIC of antibiotic at fixed inhibitor concentration (4 mg/L) [3] [µg/mL]	MIC of antibiotic at fixed inhibitor concentration (4 mg/L) (Acinetobacter sp. J2) [µg/mL]	MIC of antibiotic at fixed inhibitor concentration (4 mg/L) [4] [µg/mL]	MIC of antibiotic [1] [µg/mL]	MIC of antibiotic [2] [µg/mL]	MIC of antibiotic (Enterobacter cloacae P99) [µg/mL]	MIC of antibiotic (Serratia marcescens S6) [µg/mL]	MIC of antibiotic [3] [µg/mL]	MIC of antibiotic (Acinetobacter sp. J2) [µg/mL]	MIC of antibiotic [4] [µg/mL]	other results
Cc1cc[n+](CC(=O)N2CC[C@@H]3[C@H]2C(=O)N3S(=O)(=O)[O-])cc1C [Compound 121, (1S,5R)-2-[2-(3,4-dimethylpyridinium)acetyl]-7-oxo-2,6-diazabicyclo[3.2.0]heptane-6-sulfonate, inner salt]	16	4	32	0.25	0.25	>32	0.25								
CC1C(NC(=O)C(=NOCc2cc(=O)c(O)cn2O)c2nsc(N)n2)C(=O)N1S(=O)(=O)O (stereo not shown) [Compound 2]								8	8	>32	>32	>32	4	4	MIC of antibiotic at fixed inhibitor concentration of 4 mg/L ([1]; with 206 and clavulanate): 16 µg/mL; MIC of antibiotic at fixed inhibitor concentration of 4 mg/L ([2]; with 206 and clavulanate): 8 µg/mL; MIC of antibiotic at fixed inhibitor concentration of 4 mg/L (Enterobacter cloacae P99; with 206 and clavulanate): 16 µg/mL; MIC of antibiotic at fixed inhibitor concentration of 4 mg/L (Serratia marcescens S6; with 206 and clavulanate): >32 µg/mL; MIC of antibiotic at fixed inhibitor concentration of 4 mg/L ([3]; with 206 and clavulanate): 8 µg/mL; MIC of antibiotic at fixed inhibitor concentration of 4 mg/L (Acinetobacter sp. J2; with 206 and clavulanate): 16 µg/mL; MIC of antibiotic at fixed inhibitor concentration of 4 mg/L ([4]; with 206 and clavulanate): 0.5 µg/mL
Nc1nc(C(=NOCc2cc(=O)c(O)cn2O)C(=O)NC2CN(S(=O)(=O)O)C2=O)cs1 (stereo not shown) [Compound 9]								>32	8	>32	16	>32	>32	0.5	MIC of antibiotic at fixed inhibitor concentration of 4 mg/L ([1]; with 102 and clavulanate): 4 µg/mL; MIC of antibiotic at fixed inhibitor concentration of 4 mg/L ([2]; with 102 and clavulanate): 8 µg/mL; MIC of antibiotic at fixed inhibitor concentration of 4 mg/L (Enterobacter cloacae P99; with 102 and clavulanate): 32 µg/mL; MIC of antibiotic at fixed inhibitor concentration of 4 mg/L (Serratia marcescens S6; with 102 and clavulanate): 1 µg/mL; MIC of antibiotic at fixed inhibitor concentration of 4 mg/L ([3]; with 102 and clavulanate): 0.5 µg/mL; MIC of antibiotic at fixed inhibitor concentration of 4 mg/L (Acinetobacter sp. J2; with 102 and clavulanate): >32 µg/mL; MIC of antibiotic at fixed inhibitor concentration of 4 mg/L ([4]; with 102 and clavulanate): 0.25 µg/mL
